# Assay results: patent publication US6703409B2, “2′-Halo-3′,5′-dialkoxyphen-1′-yl-imino-2-imidazolidine and the use thereof as a drug” (Boehringer Ingelheim Pharma GmbH & Co KG, priority 2002, dated 2004)
# Tests used:
# CYP2D6 = CYP2D6 (Homo sapiens, UniProt P10635); assay: Metabolism by the enzyme CYP2D6; type: in vitro ADME; conditions: CYP2D6, after 30 minutes
# Method: To determine the metabolism the enzyme CYP2D6 was reacted with 2′-Chloro-3′,5′-dimethoxyphen-1′-yl-imino-2-imidazolidine. After 30 minutes 2.4% of the substance had been broken down by the enzyme.
# [1] = tested on: isolated dog femoral artery; assay: Maximum contraction in the isolated dog femoral artery compared with noradrenaline; conditions: as percentage of contraction compared with noradrenaline
# Description: (§1) The maximum contraction in the isolated dog femoral artery and the human urethra are given as percentages of contraction compared with noradrenaline.
# human urethra = assay: Maximum contraction in the human urethra compared with noradrenaline; conditions: as percentage of contraction compared with noradrenaline
# Description: as §1
# Chain of CYP2D6 (P10635 whole entry, species assumed): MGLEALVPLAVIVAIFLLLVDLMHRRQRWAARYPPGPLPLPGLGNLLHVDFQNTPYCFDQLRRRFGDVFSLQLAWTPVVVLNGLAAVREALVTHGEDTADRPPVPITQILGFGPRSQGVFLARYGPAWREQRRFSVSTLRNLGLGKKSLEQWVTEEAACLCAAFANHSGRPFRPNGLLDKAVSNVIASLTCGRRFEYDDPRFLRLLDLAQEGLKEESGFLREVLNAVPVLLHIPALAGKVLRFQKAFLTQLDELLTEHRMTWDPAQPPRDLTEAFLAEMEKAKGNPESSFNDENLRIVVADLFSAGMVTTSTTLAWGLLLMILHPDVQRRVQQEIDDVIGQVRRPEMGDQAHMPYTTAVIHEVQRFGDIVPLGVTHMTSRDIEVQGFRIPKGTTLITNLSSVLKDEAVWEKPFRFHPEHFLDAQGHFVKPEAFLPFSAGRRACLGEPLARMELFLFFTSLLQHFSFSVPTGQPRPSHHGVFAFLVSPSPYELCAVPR
structure (smiles),measurement,setting,value
"COc1cc(N=C2NCCN2)c(Cl)c(OC)c1 [2′-chloro-3′,5′-dimethoxyphen-1′-yl-imino-2-imidazolidine]",substance broken down by the enzyme,CYP2D6,2.4%
same,activity in the dog,[1],65%
same,activity on human urethra,human urethra,66.2%
